# From patent US9296687B2, “Modulators of HSP70/DnaK function and methods of use thereof” (The Trustees of the University of Pennsylvania, priority 2008, dated 2016)
# What was measured:
# Eμ-Myc transgenic mice = assay: Eμ-Myc mouse model of lymphomagenesis; assay type: in vivo
# Description: To evaluate the efficacy of PES as a chemopreventative agent, Eμ-Myc transgenic mice were injected every 5 days, starting at 8 weeks of age, with either vehicle or PES (40 mg/kg) prepared in PBS. All animals received a total of 7 injections, either with PES or vehicle. Consequently, no injection was given after day 86. All mice were observed daily for signs of morbidity and the development of lymphoma. All experiments with mice were approved by, and conformed to, the guidelines of the Institutional Animal Care and Use Committee of the Fox Chase Cancer Center. These mice may also be used to advantage to test the beneficial therapeutic combinations of agents and/or treatments described herein.
# Beginning at 6 weeks of age, Eμ-myc transgenic mice were treated either with vehicle, 20 mg/kg PES or 20 mg/kg PES-Cl with weekly i.p. injections of tested compound (FIG. 27).
# HSP70 [1] = assay: Capture of HA-tagged HSP70 constructs from transfected H1299 cells with biotinylated compound; assay type: binding, human; details: biotinylated PES
# Description: FIG. 1. PES Binds to HSP70. (A) Whole cell extracts (WCE) prepared from A875 and BCL-xL over-expressing U2OS human osteosarcoma cells (BX-U2OS) cells, treated with Biotin or Biotin-PES (B-PES), were captured using NeutrAvidin agarose resins. HSP70-family proteins were identified as the major product in the excised band of ˜70 kDa shown in both Coomassie gels. (B and C) WCE were prepared from the cell lines indicated following 24 h treatment with 20 μM Biotin or B-PES and examined for the expression of proteins indicated (left panel of B and C) by western blot analysis; note that different exposure times were used to visualize these proteins. […] (D) In vitro evidence for an interaction between B-PES and HSP70. Full-length human HSP70 and human HSP90 proteins were in vitro translated in the presence of ^35S-methionine, mixed with B-PES coupled to NeutrAvidin resins, and eluted using 100 mM DTT. […] (F) Non-transformed human IMR90 fibroblasts or H1299 lung carcinoma cells were treated with the indicated concentrations of PES for 24 h and cell viability was determined by MTT assays. […]
# The free amide group of PES-Cl was biotinylated and added to HA-tagged HSP70-transfected H1299 cells. […] The complexes were pulled down with NeutrAvidin beads, eluted with 100 mM DTT treatments, separated with SDS-PAGE and detected with anti-HA antibody (Millipore) by Western blot. […]
# FaDu tumor xenografts = assay: FaDu xenograft, western blot of tumor lysates for p62/SQSTM1 and LC3; assay type: in vivo, nude mice; details: 40 mg/kg intratumoral
# HSP70 [2] = molecular target: HSP70 (Homo sapiens, UniProt P0DMV8); assay: Immunoprecipitation-western blot of HSP70 complexes with co-chaperones and substrate proteins; assay type: cell-based; parameters: endogenous in cells; host or cells: human tumor cell lines (A875, BX-U2OS, U2OS, H1299, MiaPaCa2, HepG2, SKBR3, 293T)
# Sequence of HSP70 (Homo sapiens, UniProt P0DMV8) (P0DMV8 whole entry): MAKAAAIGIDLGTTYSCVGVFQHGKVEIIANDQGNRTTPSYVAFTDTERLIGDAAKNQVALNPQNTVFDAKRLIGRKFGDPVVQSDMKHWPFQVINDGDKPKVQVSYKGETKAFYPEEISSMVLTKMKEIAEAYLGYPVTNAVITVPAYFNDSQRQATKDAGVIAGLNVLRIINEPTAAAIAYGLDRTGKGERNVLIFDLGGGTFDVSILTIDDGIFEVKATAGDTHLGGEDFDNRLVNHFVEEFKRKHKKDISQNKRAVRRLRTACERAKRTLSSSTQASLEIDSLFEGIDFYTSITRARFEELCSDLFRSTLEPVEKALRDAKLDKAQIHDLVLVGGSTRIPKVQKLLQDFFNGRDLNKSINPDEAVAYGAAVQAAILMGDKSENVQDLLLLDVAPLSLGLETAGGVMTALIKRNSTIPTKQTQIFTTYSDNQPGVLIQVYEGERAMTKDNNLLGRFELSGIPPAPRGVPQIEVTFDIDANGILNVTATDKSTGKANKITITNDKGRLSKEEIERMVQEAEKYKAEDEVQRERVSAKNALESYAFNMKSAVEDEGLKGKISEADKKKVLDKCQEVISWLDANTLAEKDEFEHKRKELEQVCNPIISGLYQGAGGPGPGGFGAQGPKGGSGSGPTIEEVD
compound,measurement,setting,value
"NS(=O)(=O)C#Cc1ccccc1 [PES, 2-Phenylethynesulfonamide]",tumor development,Eμ-Myc transgenic mice; 40 mg/kg i.p. once every five days for 30 days,markedly impaired tumor development
same,overall mean survival time,Eμ-Myc transgenic mice; 40 mg/kg intra-peritoneally every 5 days for 30 days,> 140 days
same,binding to HSP70 mutants L558R and Y611S,HSP70 [1],failed to bind PES
same,LC3 in detergent-insoluble tumor fractions,FaDu tumor xenografts,accumulated LC3 in the detergent-insoluble fractions
same,p62/SQSTM1 abundance and oligomerization in tumor,FaDu tumor xenografts; 24 and 48 hr,increased p62/SQSMT1 abundance and oligomerization
same,abundance of HSP70/BAG-1S complex,HSP70 [2],no detectable change
same,abundance of HSP70/HSP90 complexes,HSP70 [2],no change in the abundance of HSP70/HSP90 complexes
same,"HSP70 in association with CHIP, HSP40 and APAF1","HSP70 [2]; 20 μM, 24 h","less HSP70 in association with CHIP, HSP40 and APAF1"
same,HSP70 interaction with viral T antigen,"HSP70 [2]; 293 cells with SV40 T antigen, 20 μM",interfered with HSP70 and viral T antigen interactions
same,LAMP2 in a complex with HSP70,"HSP70 [2]; A875, MiaPaCa2, 20 μM, 24 h",significantly reduced the amount of LAMP2 in a complex with HSP70
same,complexes containing p53 and BAK or HSP70,"HSP70 [2]; A875 and HepG2 cells, PES 20 μM, with or without cisplatin 50 μM",not observed
same,interaction between HSP70 and BAG-1M,"HSP70 [2]; H1299, U2OS",clear decrease
same,HSP70 interaction with integrin α5 and integrin β1,HSP70 [2]; H1299 cells,reduced HSP70 and integrin α5 and integin β1 interactions
same,interaction between monomeric p62/SQSTM1 and HSP70,"HSP70 [2]; MiaPaCa2, A875",attenuated the interaction
